Here are results for one compound from patent US20090197900A1, “METHODS OF TREATING HEART FAILURE AND RENAL DYSFUNCTION IN INDIVIDUALS WITH AN ADENOSINE A1 RECEPTOR ANTAGONIST” (priority 2007, published 2009).

Each structure is given as a SMILES string.

In this assay the test system is subjects with acute CHF and renal impairment having BNP levels above 500 pg/mL. Nature of the assay: Separate analysis of the Example 1 trial for subjects with BNP levels exceeding 500 pg/mL (BNP subgroup). It counts as in vivo, human. Particulars: 30 mg KW-3902, FIG. 14. As for the experimental part: More than 300 subjects hospitalized due to acute CHF requiring intravenous diuretic therapy to treat fluid overload, and presenting with creatinine clearance values between 20 to 80 mL/min were identified. The subjects were randomized to receive either placebo, or 10 mg, 20 mg or 30 mg intravenous KW-3902 per day. The subjects' BNP levels, NT-Pro-BNP, serum creatinine, weight, and NYHA Class were measured.
On day 1, KW-3902 (or placebo) was co-administered with intravenous furosemide (LASIX™). The specified dose of KW-3902 (or placebo) was infused over a four hour time period. Subjects received therapy for up to three days. Serum creatinine, weight, dyspnea, and worsening heart failure were assessed daily by the investigator on days 1 through 14. Worsening heart failure was investigator determined and required an increase in dose or reinstitution of LASIX, mechanical respiratory or circulatory assist measures, administration of intravenous positive […], or administration of intravenous vasodilators.
To compare the therapeutic effect of KW-3902 on individuals with different levels of BNP and or NT-Pro-BNP, the results of the trial discussed in Example 1 were separately analyzed to distinguish subjects with BNP levels exceeding 500 pg/mL. Approximately 75% of the subjects described in Example 1 fell within the subgroup having BNP levels above 500 pg/mL. […]

As for `CCCn1c(=O)c2[nH]c(C34CC5CC(CC3C5)C4)nc2n(CCC)c1=O` [KW-3902, 8-(3-noradamantyl)-1,3-dipropylxanthine], the “individuals characterized as modified "Success"” value is given as “greater than 65%”.
